The record followed here is patent US10314841B2, “Substituted pyrazoles as IRAK inhibitors” (Merck Patent GmbH, priority 2014, dated 2019).

Assay [1] concerns the target T1, IRAK1 (His-TEV-IRAK1 (194-712)) (Homo sapiens, UniProt P51617).
T1 construct: His-TEV-IRAK1 (194-712); His (N); TEV cleavage site (N)
The experiment in a line: IRAK1 enzymatic assay. Type of assay: biochemical. To be noted: human recombinant His-TEV-IRAK1, ATP 1 μM, 3 hours at 30° C., FlashPlate. As for the experimental part: IRAK1 Enzymatic Assay IRAK1 is a human purified recombinant enzyme (His-TEV-IRAK1 (194-712)). In this assay, IRAK-1 hydrolyses ATP and autophosphorylates. Measurement of IRAK-1 inhibition was performed in streptavidin coated 384 well FlashPlate (PerkinElmer #SM[…]). His-TEV-IRAK-1 (15 ng/well), ATP (1 μ[…]]ATP 0.25 μCi/well) and compounds in DMSO (range of concentrations from 20 μM to 1 nM) or controls (2% DMSO) were incubated for 3 hours at 30° C. in assay buffer: Hepes pH7.0 50 mM, Fatty acid-free BSA 0.1%, Dithiothreitol DTT 2 mM, MgCl2 10 mM, EGTA 0.5 mM, Triton-X-100 0.01%. Kinase reaction was stopped by addition of EDTA. Supernatant was discarded, plates were washed three times with 150 mM NaCl and radioactivity was then measured in a Microbeta Trilux reader.

Assay [2] has as its target T2, IRAK4 (His-TEV-IRAK4) (Homo sapiens, UniProt Q9NWZ3).
T2 construct: His (N); TEV cleavage site (N)
T2 sequence (Q9NWZ3 1-460): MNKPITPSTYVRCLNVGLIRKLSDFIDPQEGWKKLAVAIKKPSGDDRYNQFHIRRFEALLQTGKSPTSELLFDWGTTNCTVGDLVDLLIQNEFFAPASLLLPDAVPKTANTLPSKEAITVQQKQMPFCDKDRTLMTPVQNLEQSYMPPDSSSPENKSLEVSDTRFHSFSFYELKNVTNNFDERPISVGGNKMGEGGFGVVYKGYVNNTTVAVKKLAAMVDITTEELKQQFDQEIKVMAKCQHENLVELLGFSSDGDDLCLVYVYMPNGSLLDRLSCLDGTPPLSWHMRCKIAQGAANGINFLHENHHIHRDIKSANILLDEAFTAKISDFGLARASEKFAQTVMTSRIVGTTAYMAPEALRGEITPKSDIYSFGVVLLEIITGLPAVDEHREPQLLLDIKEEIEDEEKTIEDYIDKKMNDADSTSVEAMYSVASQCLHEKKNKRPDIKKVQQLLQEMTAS
The experiment in a line: IRAK4 enzymatic assay. To be noted: human recombinant His-TEV-IRAK4, ATP 2 μM, STK1-biotin peptide 300 nM, 3 hours at 30° C., FlashPlate. In kind it is biochemical. As for the experimental part:
IRAK4 Enzymatic Assay IRAK4 is a human purified recombinant enzyme (His-TEV-[…] (194-712). IRAK4 hydrolyses ATP, autophosphorylates and phosphorylates a Serine/Threonine generic peptidic substrate (STK: 61 ST1BLC from CisBio International based in Bagnols/Cèze FR). Measurement of IRAK-4 inhibition was performed in streptavidin coated 384 well FlashPlate (PerkinElmer #SM[…]). His-TEV-IRAK4 (20 ng/well), ATP (2 μM, [^33P]ATP 0.25 μCi/well), STK1-biotin peptide (300 nM) and compounds in DMSO (range of concentrations from 20 μM to 1 nM) or controls (2% DMSO) were incubated for 3 hours at 30° C. in assay buffer: Hepes pH7.0 50 mM, Fatty acid-free BSA 0.1%, Dithiothreitol DTT 2 mM, MgCl2 10 mM, EGTA 0.5 mM, Tween-20 0.01%, MnCl2 5 mM. Kinase reaction was stopped by addition of EDTA. Supernatant was discarded, plates were washed three times with 150 mM NaCl and radioactivity was then measured in a Microbeta Trilux reader.

T1 sequence (P51617 194-712): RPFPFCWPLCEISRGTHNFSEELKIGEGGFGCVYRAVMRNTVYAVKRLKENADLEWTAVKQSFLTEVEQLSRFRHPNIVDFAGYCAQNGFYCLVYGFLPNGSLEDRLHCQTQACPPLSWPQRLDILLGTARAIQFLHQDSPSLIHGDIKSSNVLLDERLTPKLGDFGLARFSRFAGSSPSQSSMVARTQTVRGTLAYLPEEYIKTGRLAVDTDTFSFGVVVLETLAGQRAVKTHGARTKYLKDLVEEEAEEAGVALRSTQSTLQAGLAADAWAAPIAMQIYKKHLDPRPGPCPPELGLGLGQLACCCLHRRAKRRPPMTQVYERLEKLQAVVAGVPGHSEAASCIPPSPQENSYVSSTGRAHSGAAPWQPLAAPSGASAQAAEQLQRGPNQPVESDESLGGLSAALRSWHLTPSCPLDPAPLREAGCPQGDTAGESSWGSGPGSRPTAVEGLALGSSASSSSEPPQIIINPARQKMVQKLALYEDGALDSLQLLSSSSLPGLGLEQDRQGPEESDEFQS

For orientation: IC50 means the point on the concentration scale where inhibition reaches its midpoint. Consider `CC(=O)N1CCC(n2cc(-c3cnc(-c4cccc(-c5cnn(C)c5)c4)nc3)cn2)C(CO)C1` (mixture of isomers) [Compound 22, 1-[3-Hydroxymethyl-4-(4-{2-[3-(1-methyl-1H-pyrazol-4-yl)-phenyl]-pyrimidin-5-yl}-pyrazol-1-yl)-piperidin-1-yl]-ethanone], for which the IC50 in assay [1] is 0.1 to 1 µM; in assay [2], < 0.1 µM. Take `Cn1cc(-c2cccc(-c3ncc(-c4cnn([C@H]5CCC[C@H](N6CCOCC6)C5)c4)cn3)c2)cn1` (relative stereo) [Compound 5, 4-[Trans-3-(4-{2-[3-(1-Methyl-1H-pyrazol-4-yl)-phenyl]-pyrimidin-5-yl}-pyrazol-1-yl)-cyclohexyl]-morpholine]: the 50% inhibitory concentration (IC50) in assay [1] and in assay [2] was 0.1 to 1 µM each time. Take `Cn1cc(-c2cccc(-c3ncc(-c4cnn(C5CCCC(O)(CO)C5)c4)cn3)c2)cn1` (centres unmarked) [Compound 1, 1-Hydroxymethyl-3-(4-{2-[3-(1-methyl-1H-pyrazol-4-yl)-phenyl]-pyrimidin-5-yl}-pyrazol-1-yl)-cyclohexanol]: the IC50 is 0.1 to 1 µM in assay [1] and < 0.1 µM in assay [2]. With `Cn1cc(-c2cccc(-c3ncc(-c4cnn(CCNC(=O)OC(C)(C)C)c4)cn3)c2)cn1` [Compound 6, [2-(4-{2-[3-(1-Methyl-1H-pyrazol-4-yl)-phenyl]-pyrimidin-5-yl}-pyrazol-1-yl)-ethyl]-carbamic acid tert-butyl ester], the IC50 in assay [1] and in assay [2] was 0.1 to 1 µM each time.

With `Cn1cc(-c2cccc(-c3ncc(-c4cnn(C5CCCN(C(=O)OC(C)(C)C)C5)c4)cn3)c2)cn1` (centres unmarked) [Compound 7, 3-(4-{2-[3-(1-Methyl-1H-pyrazol-4-yl)-phenyl]-pyrimidin-5-yl}-pyrazol-1-yl)-piperidine-1-carboxylic acid tert-butyl ester], the IC50 in assay [1] and in assay [2] was 0.1 to 1 µM throughout. With `Cn1cc(-c2cccc(-c3ncc(-c4cnn(C5CCN(C(=O)OC(C)(C)C)CC5)c4)cn3)c2)cn1` [Compound 8, 4-(4-{2-[3-(1-Methyl-1H-pyrazol-4-yl)-phenyl]-pyrimidin-5-yl}-pyrazol-1-yl)-piperidine-1-carboxylic acid tert-butyl ester], the IC50 in assay [1] and in assay [2] was 0.1 to 1 µM throughout.

As for `C=CC(=O)NCCn1cc(-c2cnc(-c3cccc(-c4cnn(C)c4)c3)nc2)cn1` [Compound 13, N-[2-(4-{2-[3-(1-Methyl-1H-pyrazol-4-yl)-phenyl]-pyrimidin-5-yl}-pyrazol-1-yl)-ethyl]-acrylamide], the IC50 in assay [1] and in assay [2] was 0.1 to 1 µM in each case. With `C=CS(=O)(=O)NCCn1cc(-c2cnc(-c3cccc(-c4cnn(C)c4)c3)nc2)cn1` [Compound 16, Ethenesulfonic acid [2-(4-{2-[3-(1-methyl-1H-pyrazol-4-yl)-phenyl]-pyrimidin-5-yl}-pyrazol-1-yl)-ethyl]-amide], the IC50 in assay [1] and in assay [2] was 0.1 to 1 µM each time.

On to `Cn1cc(-c2cccc(-c3ncc(-c4cnn([C@H]5C[C@@H]6CC[C@@H](N6)C5F)c4)cn3)c2)cn1` (some centres unmarked) [Compound 19, 2-Fluoro-3-(4-{2-[3-(1-methyl-1H-pyrazol-4-yl)-phenyl]-pyrimidin-5-yl}-pyrazol-1-yl)-8-aza-bicyclo[3.2.1]octane], for which the IC50 in assay [1] and in assay [2] was < 0.1 µM throughout. As to `CN1[C@H]2CC[C@@H]1C(F)[C@@H](n1cc(-c3cnc(-c4cccc(-c5cnn(C)c5)c4)nc3)cn1)C2` (some centres unmarked) [Compound 20, 2-Fluoro-8-methyl-3-(4-{2-[3-(1-methyl-1H-pyrazol-4-yl)-phenyl]-pyrimidin-5-yl}-pyrazol-1-yl)-8-aza-bicyclo[3.2.1]octane], the IC50 in assay [1] and in assay [2] was 0.1 to 1 µM throughout.

Take `Cn1cc(-c2cccc(-c3ncc(-c4cnn(C5CCCNC(=O)C5)c4)cn3)c2)cn1` (centres unmarked) [Compound 23, 4-(4-{2-[3-(1-Methyl-1H-pyrazol-4-yl)-phenyl]-pyrimidin-5-yl}-pyrazol-1-yl)-azepan-2-one]: the IC50 in assay [1] was 0.1 to 1 µM; in assay [2], < 0.1 µM. As for `CN1CCCC(n2cc(-c3cnc(-c4cccc(-c5cnn(C)c5)c4)nc3)cn2)CC1=O` (centres unmarked) [Compound 24, 1-Methyl-4-(4-{2-[3-(1-methyl-1H-pyrazol-4-yl)-phenyl]-pyrimidin-5-yl}-pyrazol-1-yl)-azepan-2-one], the IC50 in assay [1] was 0.1 to 1 µM; in assay [2] it was < 0.1 µM. In the same order, the values of `Cn1cc(-c2cccc(-c3ncc(-c4cnn(C5CCCC(N6CCCC(F)(F)C6)C5)c4)cn3)c2)cn1` (centres unmarked) [Compound 25, 5-{1-[3-(3,3-Difluoro-piperidin-1-yl)-cyclohexyl]-1H-pyrazol-4-yl}-2-[3-(1-methyl-1H-pyrazol-4-yl)-phenyl]-pyrimidine] are 0.1 to 1 µM and < 0.1 µM. As for `COCC1CNCCC1n1cc(-c2cnc(-c3cccc(-c4cnn(C)c4)c3)nc2)cn1` (centres unmarked) [Compound 29, 5-[1-(3-Methoxymethyl-piperidin-4-yl)-1H-pyrazol-4-yl]-2-[3-(1-methyl-1H-pyrazol-4-yl)-phenyl]-pyrimidine], the results for the 50% inhibitory concentration (IC50) in assay [1] and in assay [2] were 1 to 20 µM and 0.1 to 1 µM, respectively. With `O[C@H]1CC[C@H](n2cc(-c3cnc(-c4cccc(-c5cnn(CCN6CCOCC6)c5)c4)nc3)cn2)CC1` [Compound 30, (1r,4r)-4-[4-(2-{3-[1-(2-Morpholin-4-yl-ethyl)-1H-pyrazol-4-yl]-phenyl}-pyrimidin-5-yl)-pyrazol-1-yl]-cyclohexanol], the values for the IC50 in assay [1] and in assay [2] were 1 to 20 µM and 0.1 to 1 µM, respectively. Take `Cn1cc(-c2cccc(-c3ncc(-c4cnn([C@H]5CC[C@]6(CCC(=O)N6CCO)CC5)c4)cn3)c2)cn1` [Compound 31, 1-(2-Hydroxy-ethyl)-8-(4-{2-[3-(1-methyl-1H-pyrazol-4-yl)-phenyl]-pyrimidin-5-yl}-pyrazol-1-yl)-1-aza-spiro[4.5]decan-2-one]: the IC50 was 0.1 to 1 µM in assay [1] and < 0.1 µM in assay [2]. The like results for `O[C@H]1CC[C@H](n2cc(-c3cnc(-c4cccc(-c5cnn(C6CCNCC6)c5)c4)nc3)cn2)CC1` [Compound 32, 4-(4-{2-[3-(1-Piperidin-4-yl-1H-pyrazol-4-yl)-phenyl]-pyrimidin-5-yl}-pyrazol-1-yl)-cyclohexanol] were, in that order, 1 to 20 µM and 0.1 to 1 µM. For `CC1COCCC1N1CCC[C@H](n2cc(-c3cnc(-c4cccc(-c5cnn(C)c5)c4)nc3)cn2)C1` (stereo partly drawn) [Compound 39, 2-[3-(1-Methyl-1H-pyrazol-4-yl)-phenyl]-5-{1-[(S)-1-(3-methyl-tetrahydro-pyran-4-yl)-piperidin-3-yl]-1H-pyrazol-4-yl}-pyrimidine], the IC50 in assay [1] and in assay [2] was 0.1 to 1 µM throughout. As for `CC1COCCC1N1CCC[C@@H](n2cc(-c3cnc(-c4cccc(-c5cnn(C)c5)c4)nc3)cn2)C1` (stereo partly drawn) [Compound 40, 2-[3-(1-Methyl-1H-pyrazol-4-yl)-phenyl]-5-{1-[(R)-1-(3-methyl-tetrahydro-pyran-4-yl)-piperidin-3-yl]-1H-pyrazol-4-yl}-pyrimidine], the IC50 in assay [1] and in assay [2] was 0.1 to 1 µM each time. Take `Cn1cc(-c2cccc(-c3ncc(-c4cnn(C5CCC(C(=O)O)C5)c4)cn3)c2)cn1` (centres unmarked) [Compound 42, 3-(4-{2-[3-(1-Methyl-1H-pyrazol-4-yl)-phenyl]-pyrimidin-5-yl}-pyrazol-1-yl)-cyclopentanecarboxylic acid]: the IC50 is 1 to 20 µM in assay [1] and 0.1 to 1 µM in assay [2]. On to `Cn1ccc(-c2cccc(-c3ncc(-c4cnn([C@H]5CC[C@]6(CCC(=O)N6C)CC5)c4)cn3)c2)n1` [Compound 44, 1-Methyl-8-(4-{2-[3-(1-methyl-1H-pyrazol-3-yl)-phenyl]-pyrimidin-5-yl}-pyrazol-1-yl)-1-aza-spiro[4.5]decan-2-one], for which the IC50 in assay [2] is < 0.1 µM.
